For data set [1], the target named is T1, OCT2 (Homo sapiens, UniProt O15244). Briefly: in vitro. To be noted: human, pH 7.3.
Data set [2] addresses T1, OCT2. Description: Inhibition of OCT2-mediated [3H]MPP+ uptake in HEK-OCT2 cells.
Setting [3] is: test drug 20 µM, MPP+ 50 μM, 3 min, net uptake HEK-OCT2 minus HEK-VC.
Setting [4] is: test drug 200 µM, MPP+ 50 μM, 3 min, net uptake HEK-OCT2 minus HEK-VC.

Each structure is given as a SMILES string.

The values below come from article PMC4556614 (PLoS ONE, 2015).

T1 sequence (O15244 whole entry): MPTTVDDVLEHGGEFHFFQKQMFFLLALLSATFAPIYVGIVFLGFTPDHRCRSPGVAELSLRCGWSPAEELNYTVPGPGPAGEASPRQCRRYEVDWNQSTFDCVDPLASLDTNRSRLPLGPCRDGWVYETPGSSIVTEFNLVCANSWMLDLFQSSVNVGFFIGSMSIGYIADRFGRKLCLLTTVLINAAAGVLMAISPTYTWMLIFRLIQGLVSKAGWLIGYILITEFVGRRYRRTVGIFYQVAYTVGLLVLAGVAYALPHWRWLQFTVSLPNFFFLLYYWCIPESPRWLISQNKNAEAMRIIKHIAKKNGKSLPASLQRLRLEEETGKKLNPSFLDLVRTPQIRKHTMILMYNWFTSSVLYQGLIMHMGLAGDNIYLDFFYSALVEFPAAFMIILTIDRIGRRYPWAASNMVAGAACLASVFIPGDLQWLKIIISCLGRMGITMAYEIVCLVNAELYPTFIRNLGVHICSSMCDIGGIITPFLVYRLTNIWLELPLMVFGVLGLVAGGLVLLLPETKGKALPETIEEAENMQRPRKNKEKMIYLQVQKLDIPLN

For the compound `CN1C(=O)C(O)N=C(c2ccccc2Cl)c2cc(Cl)ccc21` (stereo not shown) [Lormetazepam], at OCT2 [1], the “% Inhibition of OCT2-dependent MF uptake at 20 µM (mean ± SEM)” value is on record as 77.0 ± 0.6 and the “% Inhibition of OCT2-dependent MF uptake at 200 µM (mean ± SEM)” value came out at 92.4 ± 0.5. At OCT2 [2] (human, pH 7.3), the “% Inhibition of OCT2-dependent MPP+ uptake at 20 µM (mean ± SEM)” value is reported as 47.8 ± 8.4 and the “% Inhibition of OCT2-dependent MPP+ uptake at 200 µM (mean ± SEM)” value is 69.8 ± 5.3.

In the case of `CCCCc1nc(Cl)c(CO)n1Cc1ccc(-c2ccccc2-c2nn[nH]n2)cc1` [Losartan], at OCT2 [1], the “% Inhibition of OCT2-dependent MF uptake at 20 µM (mean ± SEM)” value is -9.3 ± 10.4 and the “% Inhibition of OCT2-dependent MF uptake at 200 µM (mean ± SEM)” value is 7.4 ± 8.2. In addition, the “% Inhibition of OCT2-dependent MPP+ uptake at 20 µM (mean ± SEM)” value at OCT2 [2] (setting [3]) is -41.8 ± 8.1%. Moreover, the “% Inhibition of OCT2-dependent MPP+ uptake at 200 µM (mean ± SEM)” value on OCT2 [2] (setting [4]) is on record as -59.5 ± 6.1%.

`CC1CCN(CCCC(=O)c2ccc(F)cc2)CC1` [Melperone]: at OCT2 [1], the “% Inhibition of OCT2-dependent MF uptake at 20 µM (mean ± SEM)” value is on record as 75.0 ± 3.4 and the “% Inhibition of OCT2-dependent MF uptake at 200 µM (mean ± SEM)” value was found to be 94.9 ± 4.2. Besides, on OCT2 [2] (setting [3]), the “% Inhibition of OCT2-dependent MPP+ uptake at 20 µM (mean ± SEM)” value was found to be 8.6 ± 10.1%. Besides, the “% Inhibition of OCT2-dependent MPP+ uptake at 200 µM (mean ± SEM)” value at OCT2 [2] (setting [4]) worked out at 69.7 ± 3.8%.

Turning to `CC12CC3CC(C)(C1)CC(N)(C3)C2` [Memantine], on OCT2 [1], the “% Inhibition of OCT2-dependent MF uptake at 20 µM (mean ± SEM)” value is given as 54.0 ± 2.1 and the “% Inhibition of OCT2-dependent MF uptake at 200 µM (mean ± SEM)” value is listed as 93.9 ± 0.6. At OCT2 [2] (setting [3]), the “% Inhibition of OCT2-dependent MPP+ uptake at 20 µM (mean ± SEM)” value is on record as 20.6 ± 8.6%. Moreover, the “% Inhibition of OCT2-dependent MPP+ uptake at 200 µM (mean ± SEM)” value on OCT2 [2] (setting [4]) amounted to 54.0 ± 7.0%.

Regarding `Nc1ccc(O)c(C(=O)O)c1` [Mesalazine], on OCT2 [1], the “% Inhibition of OCT2-dependent MF uptake at 20 µM (mean ± SEM)” value worked out at 21.6 ± 11.1 and the “% Inhibition of OCT2-dependent MF uptake at 200 µM (mean ± SEM)” value amounted to 59.8 ± 6.7. The “% Inhibition of OCT2-dependent MPP+ uptake at 20 µM (mean ± SEM)” value at OCT2 [2] (setting [3]) is recorded as -51.3 ± 6.1%. On OCT2 [2] (setting [4]), the “% Inhibition of OCT2-dependent MPP+ uptake at 200 µM (mean ± SEM)” value is -68.0 ± 8.5%.

For `Cc1c(N(C)CS(=O)(=O)O)c(=O)n(-c2ccccc2)n1C` [Metamizole], on OCT2 [1], the “% Inhibition of OCT2-dependent MF uptake at 20 µM (mean ± SEM)” value is listed as -4.8 ± 6.4 and the “% Inhibition of OCT2-dependent MF uptake at 200 µM (mean ± SEM)” value came to 8.4 ± 9.8. For the same compound, at OCT2 [2] (setting [3]), the “% Inhibition of OCT2-dependent MPP+ uptake at 20 µM (mean ± SEM)” value was -31.6 ± 6.0%. Moreover, on OCT2 [2] (setting [4]), the “% Inhibition of OCT2-dependent MPP+ uptake at 200 µM (mean ± SEM)” value is -39.1 ± 5.1%.

On to `CCC(=O)C(CC(C)N(C)C)(c1ccccc1)c1ccccc1` (stereo not shown) [Methadone], for which the “% Inhibition of OCT2-dependent MF uptake at 200 µM (mean ± SEM)” value at OCT2 [1] amounted to 99.3 ± 0.3. Besides, the “% Inhibition of OCT2-dependent MPP+ uptake at 20 µM (mean ± SEM)” value at OCT2 [2] (setting [3]) was found to be 8.9 ± 4.4%. Moreover, the “% Inhibition of OCT2-dependent MPP+ uptake at 200 µM (mean ± SEM)” value at OCT2 [2] (setting [4]) was 68.7 ± 3.8%.

Turning to `CN(Cc1cnc2nc(N)nc(N)c2n1)c1ccc(C(=O)N[C@@H](CCC(=O)O)C(=O)O)cc1` [Methotrexate], on OCT2 [1], the “% Inhibition of OCT2-dependent MF uptake at 20 µM (mean ± SEM)” value is reported as -1.1 ± 11.4 and the “% Inhibition of OCT2-dependent MF uptake at 200 µM (mean ± SEM)” value is reported as -5.8 ± 13.0. The “% Inhibition of OCT2-dependent MPP+ uptake at 20 µM (mean ± SEM)” value at OCT2 [2] (setting [3]) is -19.0 ± 7.2%. In addition, on OCT2 [2] (setting [4]), the “% Inhibition of OCT2-dependent MPP+ uptake at 200 µM (mean ± SEM)” value is listed as -9.5 ± 3.0%.

Consider `COC(=O)C(c1ccccc1)C1CCCCN1` (stereo not shown) [Methylphenidate], for which, at OCT2 [1], the “% Inhibition of OCT2-dependent MF uptake at 20 µM (mean ± SEM)” value was determined as 17.9 ± 4.6 and the “% Inhibition of OCT2-dependent MF uptake at 200 µM (mean ± SEM)” value was 79.6 ± 2.3. In addition, on OCT2 [2] (human, pH 7.3), the “% Inhibition of OCT2-dependent MPP+ uptake at 20 µM (mean ± SEM)” value amounted to 11.5 ± 8.9 and the “% Inhibition of OCT2-dependent MPP+ uptake at 200 µM (mean ± SEM)” value was 31.6 ± 4.7.

Regarding `CCN(CC)CCNC(=O)c1cc(Cl)c(N)cc1OC` [Metoclopramide], at OCT2 [1], the “% Inhibition of OCT2-dependent MF uptake at 20 µM (mean ± SEM)” value was 74.7 ± 8.5 and the “% Inhibition of OCT2-dependent MF uptake at 200 µM (mean ± SEM)” value came out at 93.9 ± 0.6. The “% Inhibition of OCT2-dependent MPP+ uptake at 20 µM (mean ± SEM)” value on OCT2 [2] (setting [3]) stood at 24.5 ± 2.9%. On OCT2 [2] (setting [4]), the “% Inhibition of OCT2-dependent MPP+ uptake at 200 µM (mean ± SEM)” value is reported as 66.6 ± 8.4%.

For `COCCc1ccc(OCC(O)CNC(C)C)cc1` (stereo not shown) [Metoprolol], at OCT2 [1], the “% Inhibition of OCT2-dependent MF uptake at 20 µM (mean ± SEM)” value came out at 50.5 ± 5.9 and the “% Inhibition of OCT2-dependent MF uptake at 200 µM (mean ± SEM)” value is listed as 88.2 ± 1.7. Further, the “% Inhibition of OCT2-dependent MPP+ uptake at 20 µM (mean ± SEM)” value on OCT2 [2] (setting [3]) was 23.2 ± 6.5%. In addition, the “% Inhibition of OCT2-dependent MPP+ uptake at 200 µM (mean ± SEM)” value on OCT2 [2] (setting [4]) is given as 27.5 ± 6.9%.
